Assay [1] in a line: Hypoxia response of the referenced genes/sequences, summary in cross-reference Table 26. The assay is classed as cell-based, human. To be noted: direction of expression change of the gene/sequence in response to hypoxia.
Assay [2] relates to primary human macrophages. As to the kind of experiment: Custom gene array, macrophages exposed to hypoxia and/or TNFα. Particulars: relative to no cytokine, 20% oxygen = 1. In kind it is cell-based.

We go through five substances from patent US20030203372A1, “Analysis method” (priority 2000, published 2003).

As to Alpha-2-macroglobulin, in assay [1], the Hypoxia response entry is reported as “Repression”.
In the case of Osteopontin, the Hypoxia response entry in assay [1] was “Increase”.
As for Vascular endothelial growth factor, the Hypoxia response result in assay [1] is “Increase”.
Endothelin 1: the Hypoxia response entry in assay [1] is “Repression”.
Take IL-17: in assay [2] (0.1% oxygen), the “Decidual protein induced by progesterone expression (clone p1C16, Seq ID 388)” value is reported as 0.51; the “EST expression (clone p1H4, Seq ID 214)” value is reported as 0.58; the “EST expression (clone p2A14, Seq ID 446)” value turned out to be 0.40; the “Fatty-acid-Coenzyme A ligase, long-chain 2 expression (clone p1J11, Seq ID 466)” value is listed as 1.28. Further, in assay [2] (0.1% oxygen), the “GAPDH expression (clone p1A11, Seq ID 254)” value was determined as 1.84; the “GRO1 expression (clone p1I24, Seq ID 486)” value is given as 1.28; the “GRO2 expression (clone p1I19, Seq ID 482)” value amounted to 1.43; the “Glucose phosphate isomerase expression (clone p1C6, Seq ID 368)” value stood at 1.43. For the same substance, in assay [2] (0.1% oxygen), the “Interleukin 8 expression (clone p1B14, Seq ID 252)” value amounted to 7.13; the “Interleukin 8 expression (clone p1B15, Seq ID 252)” value stood at 9.71; the “Interleukin 8 expression (clone p1B16, Seq ID 252)” value is given as 12.2; the “Neutral sphingomyelinase (N-SMase) activation associated factor expression (clone p1J22, Seq ID 428)” value worked out at 0.11. Moreover, in assay [2] (0.1% oxygen), the “Plasminogen activator inhibitor, type 1 expression (clone p1B18, Seq ID 236)” value was 0.78; the “SCYA2 expression (clone p1P5, Seq ID 396)” value worked out at 0.58; the “SCYA4 expression (clone p1K8, Seq ID 408)” value is listed as 0.83; the “cDNA YI27F12 expression (clone p1E15, Seq ID 108)” value was 0.56. In addition, the “hypothetical protein FLJ10206 expression (clone p1J6, Seq ID 40)” value in assay [2] (0.1% oxygen) was found to be 0.23. In addition, in assay [2] (20% oxygen), the “Decidual protein induced by progesterone expression (clone p1C16, Seq ID 388)” value was found to be 0.73; the “EST expression (clone p1H4, Seq ID 214)” value is reported as 0.49; the “EST expression (clone p2A14, Seq ID 446)” value is recorded as 0.56; the “Fatty-acid-Coenzyme A ligase, long-chain 2 expression (clone p1J11, Seq ID 466)” value is reported as 1.63. Besides, in assay [2] (20% oxygen), the “GAPDH expression (clone p1A11, Seq ID 254)” value was determined as 2.60; the “GRO1 expression (clone p1I24, Seq ID 486)” value amounted to 2.29; the “GRO2 expression (clone p1I19, Seq ID 482)” value amounted to 2.26; the “Glucose phosphate isomerase expression (clone p1C6, Seq ID 368)” value amounted to 2.14. In assay [2] (20% oxygen), the “Glycogen synthase 1 expression (clone p1G24, Seq ID 276)” value is given as 0.34; the “Hypoxia-inducible protein 2 expression (clone p1D8, Seq ID 272)” value is reported as 0.44; the “Interleukin 8 expression (clone p1B14, Seq ID 252)” value is listed as 9.34; the “Interleukin 8 expression (clone p1B15, Seq ID 252)” value came out at 7.36. Further, in assay [2] (20% oxygen), the “Interleukin 8 expression (clone p1B16, Seq ID 252)” value was 9.52; the “Plasminogen activator inhibitor, type 1 expression (clone p1B18, Seq ID 236)” value is reported as 0.49; the “SCYA2 expression (clone p1P5, Seq ID 396)” value turned out to be 2.12; the “SCYA4 expression (clone p1K8, Seq ID 408)” value was found to be 2.48. In assay [2] (20% oxygen), the “hypothetical protein FLJ10206 expression (clone p1J6, Seq ID 40)” value is 0.22.
